Measurements: the supplement of paper PMC10307832

Experiments:
Assay in all cases: relative viability (nuclei count vs DMSO), 5 days (fraction); higher = more cells survive
CUDC-101 + Pictilisib = compound: C#Cc1cccc(Nc2ncnc3cc(OC)c(OCCCCCCC(=O)NO)cc23)c1 [CUDC-101] + CS(=O)(=O)N1CCN(Cc2cc3nc(-c4cccc5[nH]ncc45)nc(N4CCOCC4)c3s2)CC1 [Pictilisib] (partner 1 µM)
Procedure, shortened: (§1)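 Lung cancer cell lines were seeded in 1536-well plates and dosed by pin tool the next day, with either a single drug or a fixed anchor-drug dose combined with five library-drug doses (not always all listed) spaced in √10 steps. Five days later, one step fixed the cells and stained their nuclei (final 0.05% Triton X-100, 1% formaldehyde, 1 ug/ml Hoechst), and nuclei were counted on 4× images. Relative viability is the nuclei count in treated wells divided by the count in vehicle wells, and each value is the median of duplicate plates.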

[1] = compound: C1=CC=C2C(=C1)N=C(S2)C(C#N)C3=NC(=NC=C3)NCCC4=CN=CC=C4 + N=C(N)NC(=N)NCCc1ccccc1 [Phenformin] (partner 250 µM)
Procedure, shortened: as §1

NVP-TAE684 + Dasatinib = compound: COc1cc(N2CCC(N3CCN(C)CC3)CC2)ccc1Nc1ncc(Cl)c(Nc2ccccc2S(=O)(=O)C(C)C)n1 [NVP-TAE684] + Cc1nc(Nc2ncc(C(=O)Nc3c(C)cccc3Cl)s2)cc(N2CCN(CCO)CC2)n1 [Dasatinib] (partner 0.075 µM)
Procedure, shortened: as §1

[2] = compound: C1=CC=C2C(=C1)N=C(S2)C(C#N)C3=NC(=NC=C3)NCCC4=CN=CC=C4 + CCNC(=O)c1noc(-c2cc(C(C)C)c(O)cc2O)c1-c1ccc(CN2CCOCC2)cc1 [Luminespib] (partner 0.01 µM)
Procedure, shortened: as §1

Cell Line	relative viability (CUDC-101 + Pictilisib; first compound 0.01 µM)	relative viability (CUDC-101 + Pictilisib; first compound 0.1 µM)	relative viability (CUDC-101 + Pictilisib; first compound 0.3162 µM)	relative viability (CUDC-101 + Pictilisib; first compound 1 µM)	relative viability ([1]; first compound 0.005 µM)	relative viability ([1]; first compound 0.01581 µM)	relative viability ([1]; first compound 0.05 µM)	relative viability ([1]; first compound 0.1581 µM)	relative viability ([1]; first compound 0.5 µM)	relative viability (NVP-TAE684 + Dasatinib; first compound 0.2 µM)	relative viability (NVP-TAE684 + Dasatinib; first compound 0.6325 µM)	relative viability (NVP-TAE684 + Dasatinib; first compound 2 µM)	relative viability ([2]; first compound 0.005 µM)	relative viability ([2]; first compound 0.01581 µM)	relative viability ([2]; first compound 0.05 µM)	relative viability ([2]; first compound 0.1581 µM)	relative viability ([2]; first compound 0.5 µM)	relative viability (CUDC-101 + Pictilisib; first compound 0.03162 µM)
NCI-H520	0.307	0.305	0.251	0.214	0.494	0.472	0.556	0.636	0.532	0.17	0.196	0.139	0.237	0.201	0.214	0.224	0.198	–
NCI-H596	0.403	0.422	0.384	0.68	0.557	0.848	0.687	0.921	0.801	0.629	0.397	0.286	0.627	1.02	0.875	1.07	0.764	0.382
NCI-H647	0.446	0.576	0.491	0.361	0.265	0.442	0.584	0.775	0.292	0.0949	0.103	0.0648	0.208	0.262	0.169	0.235	0.286	0.512
NCI-H650	0.856	1.05	0.705	0.51	0.49	–	0.483	0.452	0.505	0.513	0.376	0.262	0.784	–	0.724	0.825	0.863	0.888
NCI-H661	0.477	0.476	0.487	0.358	0.231	0.255	0.291	0.291	0.277	1.09	0.677	0.622	0.902	0.917	0.918	0.926	0.933	0.422
NCI-H727	0.412	0.283	0.286	0.27	–	0.577	0.45	0.55	0.641	0.383	0.273	0.232	–	0.241	0.294	0.105	0.329	0.355
NCI-H838	0.516	0.683	0.628	0.397	0.326	0.573	0.527	0.717	0.39	0.295	0.23	0.238	0.327	0.368	0.252	0.367	0.273	0.508
NCI-H1355	0.485	0.491	0.38	0.277	0.41	0.437	0.412	0.436	0.412	0.673	0.534	0.372	0.618	0.832	0.765	0.763	0.568	0.44
NCI-H1395	0.59	0.564	0.652	0.581	0.422	0.378	0.415	0.449	0.418	0.408	0.387	0.317	0.878	0.641	0.822	0.679	0.819	0.682
NCI-H1437	0.4	0.46	0.375	0.149	0.298	0.3	0.345	0.339	0.223	0.363	0.272	0.128	1.06	1.25	1.12	1.18	1.1	0.44
NCI-H1563	0.652	0.709	0.667	0.509	0.595	0.62	0.635	0.673	0.667	0.443	0.423	0.382	0.534	0.52	0.507	0.553	0.552	0.607
NCI-H1650	0.57	0.559	0.446	0.293	0.375	0.335	0.523	0.402	0.377	0.378	0.19	0.137	0.171	0.191	0.176	0.204	0.2	0.552
NCI-H1651	0.55	0.689	0.605	0.328	0.281	0.352	0.364	0.403	0.337	0.326	0.321	0.146	0.752	0.647	1.02	1.09	0.705	0.595
NCI-H1666	0.395	0.322	0.394	0.271	0.529	0.578	0.556	0.539	0.511	0.813	0.708	0.46	0.856	0.965	0.986	1.1	0.833	0.397
NCI-H1734	0.499	0.452	0.437	0.285	–	0.44	0.375	0.471	0.392	0.47	0.362	0.194	–	0.253	0.184	0.185	0.188	0.488
NCI-H1755	0.406	0.444	0.41	0.264	0.617	0.641	0.621	0.695	0.607	0.333	0.276	0.0732	0.458	0.406	0.262	0.576	0.61	0.409
NCI-H1792	0.361	0.28	0.316	0.155	–	–	0.286	0.697	0.388	0.623	0.76	0.25	–	0.462	0.453	0.255	0.6	0.226
NCI-H1793	0.302	0.248	0.375	0.273	0.382	0.369	0.328	0.454	0.355	0.402	0.321	0.328	0.16	0.141	0.182	0.158	0.22	0.43

Cell Line	relative viability (CUDC-101 + Pictilisib; first compound 0.01 µM)	relative viability (CUDC-101 + Pictilisib; first compound 0.1 µM)	relative viability (CUDC-101 + Pictilisib; first compound 0.3162 µM)	relative viability (CUDC-101 + Pictilisib; first compound 1 µM)	relative viability ([1]; first compound 0.005 µM)	relative viability ([1]; first compound 0.01581 µM)	relative viability ([1]; first compound 0.05 µM)	relative viability ([1]; first compound 0.1581 µM)	relative viability ([1]; first compound 0.5 µM)	relative viability (NVP-TAE684 + Dasatinib; first compound 0.2 µM)	relative viability (NVP-TAE684 + Dasatinib; first compound 0.6325 µM)	relative viability (NVP-TAE684 + Dasatinib; first compound 2 µM)	relative viability ([2]; first compound 0.005 µM)	relative viability ([2]; first compound 0.01581 µM)	relative viability ([2]; first compound 0.05 µM)	relative viability ([2]; first compound 0.1581 µM)	relative viability ([2]; first compound 0.5 µM)	relative viability (CUDC-101 + Pictilisib; first compound 0.03162 µM)
NCI-H1915	1	0.882	0.924	0.531	0.312	0.37	0.356	0.398	0.353	0.363	0.294	0.255	0.464	0.933	0.826	0.876	0.601	0.907
NCI-H1944	0.319	0.32	0.324	0.298	0.159	0.227	0.206	0.234	0.203	0.212	0.202	0.161	0.739	0.854	0.558	0.636	0.759	0.311
NCI-H1975	0.336	0.265	0.24	0.192	0.301	0.42	0.404	0.447	0.359	0.361	0.225	0.186	–	0.202	0.246	0.171	0.225	0.323
NCI-H1993	0.845	0.918	0.763	0.869	0.586	0.514	0.461	0.58	0.542	0.499	0.548	0.581	0.846	0.852	0.821	0.834	0.738	0.824
NCI-H2009	0.813	0.963	0.917	0.699	0.466	0.477	0.476	0.508	0.437	0.207	0.157	0.172	1.1	1.09	1.05	1.07	1.05	0.824
NCI-H2023	0.245	0.257	0.226	0.151	0.384	0.439	0.424	0.47	0.423	0.393	0.254	0.114	0.994	1	0.901	1.03	0.765	0.223
NCI-H2085	0.539	0.493	0.489	0.304	0.639	0.702	0.595	0.819	0.799	0.187	0.16	0.162	0.439	0.368	0.4	0.388	0.413	0.549
NCI-H2087	0.985	1.11	1.11	0.603	0.472	0.495	0.471	0.623	0.426	0.573	0.694	0.225	0.163	0.159	0.222	0.2	0.15	1.03
NCI-H2126	0.501	0.432	0.446	0.315	0.536	0.529	0.505	0.543	0.529	0.568	0.39	0.375	0.561	0.87	0.73	0.997	0.836	0.545
NCI-H2170	0.317	0.289	0.275	0.169	0.396	0.405	0.446	0.417	0.384	0.588	0.477	0.368	0.702	0.803	0.621	1.01	0.894	0.297
NCI-H2228	0.246	0.494	0.36	0.252	0.19	0.281	0.299	0.316	0.314	0.206	0.0665	0.0894	0.146	0.117	0.153	0.163	0.142	0.485
NCI-H2347	0.711	0.794	0.436	0.569	0.417	0.334	0.322	0.611	0.455	0.501	0.307	0.293	0.811	0.355	0.381	0.488	0.363	0.658
NCI-H2405	0.462	0.642	0.624	0.336	0.362	0.364	0.358	0.455	0.407	0.226	0.178	0.154	0.708	0.638	0.654	0.655	0.809	0.419
NCI-H3122	0.539	0.692	0.73	0.54	0.393	0.37	0.364	0.44	0.35	0.239	0.119	0.0896	0.0736	0.0973	0.553	0.0763	0.0863	0.57
PC-3 [JPC-3]	0.756	0.277	0.348	0.245	0.502	0.485	0.456	0.48	0.419	0.942	0.979	0.649	0.681	0.71	0.693	0.724	0.561	0.632
PC-14	0.936	0.215	0.173	0.0519	0.381	0.401	0.542	0.75	0.45	0.242	0.11	0.0369	0.197	–	0.117	0.119	0.155	0.562
RERF-LC-KJ	0.465	0.511	0.485	0.376	0.396	0.447	0.403	0.442	0.377	0.667	0.596	0.327	0.935	0.982	1.4	1.18	1.06	0.518
